# Experimental data reported in US10206388B2, “Formulation component” (SYNGENTA LIMITED, priority 2011, dated 2019).
# How the values were obtained:
# Format in all cases: in vivo
# [1] = test system: Abutilon theophrasti (ABUTH); experiment: Glasshouse weed test, fomesafen with adjuvants; conditions: Table 8, Example 6: fomesafen 60 or 120 g/ha; adjuvant 0.2% v/v; mean over two rates, three replicates, 7, 14 and 20 days
# Method: (§1) The aromatic ester Finsolv® TN (C12-C15 alkyl benzoate) was tested in a glasshouse against four weed species using the herbicide fomesafen. An agrochemical composition was prepared containing 0.2% v/v of the adjuvant in a track sprayer and was applied at a volume of 200 liters per hectare. Fomesafen was applied at either 60 or 120 grams of pesticide per hectare on each of the weed species. The weed species and their growth stage at spraying were Chenopodium album (CHEAL; growth stage 14), Abutilon theophrasti (ABUTH; growth stage 12), Setaria viridis (SETVI; growth stage 13), and Xanthium strumarium (XANST; growth stage 12).
# (§2) Each spray test was replicated three times. The efficacy of the herbicide was assessed visually and expressed as a percentage of the leaf area killed. Samples were assessed at time periods of 7, 14 and 20 days following application. The results shown in Table 8 below are mean averages over the two rates of fomesafen, three replicates and the three assessment timings, and are compared to the efficacy of fomesafen in the absence of an adjuvant, and fomesafen in the presence of the commercially available adjuvant Turbocharge®.
# [2] = test system: Chenopodium album (CHEAL); experiment: Glasshouse weed test, fomesafen with adjuvants; conditions: Table 8, Example 6: fomesafen 60 or 120 g/ha; adjuvant 0.2% v/v; mean over two rates, three replicates, 7, 14 and 20 days
# Method: as §1, §2
# Setaria viridis (SETVI) = experiment: Glasshouse weed test, fomesafen with adjuvants; conditions: Table 8, Example 6: fomesafen 60 or 120 g/ha; adjuvant 0.2% v/v; mean over two rates, three replicates, 7, 14 and 20 days
# Method: as §1, §2
# [3] = test system: Xanthium strumarium (XANST); experiment: Glasshouse weed test, fomesafen with adjuvants; conditions: Table 8, Example 6: fomesafen 60 or 120 g/ha; adjuvant 0.2% v/v; mean over two rates, three replicates, 7, 14 and 20 days
# Method: as §1, §2
# [4] = test system: four weed species (CHEAL, ABUTH, SETVI, XANST); experiment: Glasshouse weed test, fomesafen with adjuvants, mean across species; conditions: adjuvant 0.2% v/v, mean over two rates
# Method: as §1, §2
# A second experiment was conducted to assess the efficacy of Finsolv® TN as an adjuvant in compositions of fomesafen. This was carried out as outlined above, with the following change: samples were assessed at 6, 14 and 20 days post application.
# The results shown in Table 9 below are mean averages over the two rates of fomesafen, three replicates, three assessment timings, and four weed species and are compared to the efficacy of fomesafen in the absence of an adjuvant, and fomesafen in the presence of the commercially available tank-mix adjuvant, Turbocharge®.
# An agrochemical composition was prepared containing 0.2% v/v of the adjuvant in a track sprayer and was applied at a volume of 200 liters per hectare. […]
# Each spray test was replicated three times. The efficacy of the herbicide was assessed visually and expressed as a percentage of the leaf area killed. Samples were assessed at time periods of 7, 14 and 20 days following application. […]
# [5] = test system: four weed species (POLCO, BRAL, DIGSA, COMBE); experiment: as above; conditions: mean over two rates, three replicates, 14 and 21 days
# Method: An agrochemical composition was prepared containing 0.2% v/v of the adjuvant in a track sprayer and was applied at a volume of 200 liters per hectare. The adjuvant oils were emulsified using a small amount of the surfactant Pluronic® PE 10500, which was present in the composition at a concentration of 0.02% v/v. Fomesafen was applied at either 60 or 120 grams of pesticide per hectare on each of the weed species. The weed species and their growth stage at spraying were Polygonum convolvulus (POLCO; growth stage 13-14), Brachiaria plantaginea (BRAL; growth stage 13-14), Digitaria sanguinalis (DIGSA; growth stage 14), and Commelina benghalensis (COMBE; growth stage 13-14).
# as §2, with “of” for “of 7,”, “21” for “20”, “20” for “8”, “replicates the two assessment timings,” for “replicates”, “four weed species,” for “three assessment timings,”
# An agrochemical composition was prepared containing either 0.2, 0.1, 0.05 or 0.025% v/v of the adjuvant in a track sprayer and was applied at a volume of 200 liters per hectare. The commercial adjuvant Turbocharge® was applied at 0.5% v/v. Fomesafen was applied at either 60 or 120 grams of pesticide per hectare on each of the weed species. The weed species and their growth stage at spraying were Polygonum convolvulus (POLCO; growth stage 13-14), Brachiaria plantaginea (BRAL; growth stage 12-13), Digitaria sanguinalis (DIGSA; growth stage 13), and Commelina benghalensis (COMBE; growth stage 12).
# as §2, with “of” for “of 7,”, “21” for “20”, “24” for “8”, “replicates the two assessment timings,” for “replicates”, “four weed species,” for “three assessment timings,”, “Turbocharge®. […]” for “Turbocharge®.”
# Each spray test was replicated three times. The efficacy of the herbicide was assessed visually and expressed as a percentage of the leaf area killed. Samples were assessed at time periods of 14 and 21 days following application. […]
smiles,measurement,setting,value
"CS(=O)(=O)NC(=O)c1cc(Oc2ccc(C(F)(F)F)cc2Cl)ccc1[N+](=O)[O-] [Fomesafen, fomesafen]",Mean percentage kill ABUTH,[1],19.7 C %
same,Mean percentage kill CHEAL,[2],34.7 C %
same,Mean percentage kill SETVI,Setaria viridis (SETVI),10.3 B %
same,Mean percentage kill XANST,[3],59.2 C %
same,"Mean percentage kill, Mean across species","[4]; Table 8, Example 6: fomesafen 60 or 120 g/ha, three replicates, 7, 14 and 20 days",31.0 C %
same,"Mean percentage kill, Mean across species","[4]; Table 9, Example 6 second experiment: fomesafen 60 or 120 g/ha, three replicates, 6, 14 and 20 days, four weed species",44.9 B %
same,"Mean percentage kill, Mean across species","[4]; Table 15, Example 11: fomesafen 60 or 120 g/ha, three replicates, 7, 14 and 20 days, four weed species",37.7 C %
same,"Mean percentage kill, Mean across species","[5]; Table 20, Example 16: fomesafen 60 or 120 g/ha, adjuvant 0.2% v/v emulsified with Pluronic PE 10500 0.02% v/v",24.3D %
same,"Mean percentage kill, Mean across species","[5]; Table 24, Example 20: absence of an adjuvant, fomesafen 60 or 120 g/ha",17.8E %
same,"Mean percentage kill, Mean across species","[5]; Table 28, Example 25: fomesafen 60 or 120 g/ha, adjuvant 0.2% v/v",32.8C %
same,"Mean percentage kill, Mean across species","[5]; Table 34, Example 34: fomesafen 60 or 120 g/ha, adjuvant 0.2% v/v",17.8B %
